The text below walks through data of US11090304B2 (Amgen Inc., priority 2018, dated 2021).

Sequence of GDP-bound KRAS protein (aa 1-169), containing both G12C and C118A amino acid substitutions (P01116 1-169 isoform P01116-2 G12C/C118A): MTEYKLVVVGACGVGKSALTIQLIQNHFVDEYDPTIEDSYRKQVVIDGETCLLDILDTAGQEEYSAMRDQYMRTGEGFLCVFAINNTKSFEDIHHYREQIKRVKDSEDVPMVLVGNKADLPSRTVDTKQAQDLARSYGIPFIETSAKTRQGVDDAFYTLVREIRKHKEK

One experiment concerns the target GDP-bound KRAS protein (aa 1-169), containing both G12C and C118A amino acid substitutions (Homo sapiens, UniProt P01116, C118A/G12C). The experiment in a line: Coupled nucleotide exchange assay (SOS-mediated, AlphaScreen). The format is biochemical. Conditions: 5 min compound pre-incubation.
Turning to `C=CC(=O)N1CCN(c2nc(=O)n(-c3ccccc3C(C)C)c3nc(-c4ccc[nH]4)c(Cl)cc23)[C@@H](C)C1` [Example 54-46, 6-chloro-4-((2S)-2-methyl-4-(2-propenoyl)-1-piperazinyl)-1-(2-(2-propanyl)phenyl)-7-(1H-pyrrol-2-yl)pyrido[2,3-d]pyrimidin-2(1H)-one], the “Coupled exchange IC50 (5 min)” value was 7.24 | nda μM.

`C=CC(=O)N1CCN(c2nc(=O)n(-c3ccccc3C(C)C)c3nc(-c4ccco4)c(Cl)cc23)[C@@H](C)C1` [Example 54-47, 6-chloro-7-(2-furanyl)-4-((2S)-2-methyl-4-(2-propenoyl)-1-piperazinyl)-1-(2-(2-propanyl)phenyl)pyrido [2,3-d]pyrimidin-2(1H)-one]: the “Coupled exchange IC50 (5 min)” value was 10.7 | nda μM. The same measure, in the same setting: the result for `C=CC(=O)N1CCN(c2nc(=O)n(-c3ccccc3OC(F)(F)F)c3nc(-c4c(O)cccc4F)c(Cl)cc23)[C@@H](C)C1` [Example 54-49, 6-chloro-7-(2-fluoro-6-hydroxyphenyl)-4-((2S)-2-methyl-4-(2-propenoyl)-1-piperazinyl)-1-(2-(trifluoromethoxy)phenyl) pyrido[2,3-d]pyrimidin-2(1H)-one] reads 5.65 | nda μM; that for `C=CC(=O)N1C[C@@H]2C[C@H]1CN2c1nc(=O)n(-c2ccccc2C(C)C)c2nc(-c3c(O)cccc3F)c(Cl)cc12` [Example 54-50, 4-((1S,4S)-5-acryloyl-2,5-diazabicyclo [2.2.1]heptan-2-yl)-6-chloro-7-(2-fluoro-6-hydroxyphenyl)-1-(2-isopropylphenyl) pyrido [2,3-d]pyrimidin-2(1H)-one], 88.8 | nda μM.

Consider `C=CC(=O)N1CCN(c2nc(=O)n(-c3ccccc3S(C)(=O)=O)c3nc(-c4c(O)cccc4F)c(Cl)cc23)[C@@H](C)C1` [Example 54-56, 6-chloro-7-(2-fluoro-6-hydroxyphenyl)-4-((2S)-2-methyl-4-(2-propenoyl)-1-piperazinyl)-1-(2-(methylsulfonyl)phenyl) pyrido[2,3-d]pyrimidin-2(1H)-one], for which the “Coupled exchange IC50 (5 min)” value is 1.42 | nda μM. Take `C=CC(=O)N1CCN(c2nc(=O)n(-c3ccccc3S(C)(=O)=O)c3nc(-c4c(O)cccc4F)c(Cl)cc23)[C@@H](C)C1` [Example 54-56-1]: the “Coupled exchange IC50 (5 min)” value is given as 2.49 | nda μM. On the same count and under the same terms, the result for `C=CC(=O)N1CCN(c2nc(=O)n(-c3ccccc3C#N)c3nc(-c4c(O)cccc4F)c(Cl)cc23)[C@@H](C)C1` [Example 54-58, 2-(6-chloro-7-(2-fluoro-6-hydroxyphenyl)-4-((2S)-2-methyl-4-(2-propenoyl)-1-piperazinyl)-2-oxopyrido[2,3-d]pyrimidin-1(2H)-yl)benzonitrile] reads 3.44 | nda μM.

Regarding `C=CC(=O)N1CCN(c2nc(=O)n(-c3c(OC)cccc3OC)c3nc(-c4ccccc4F)c(Cl)cc23)[C@@H](C)C1` [Example 54-68, 6-chloro-1-(2,6-dimethoxy-phenyl)-7-(2-fluorophenyl)-4-((2S)-2-methyl-4-(2-propenoyl)-1-piperazinyl) pyrido[2,3-d]pyrimidin-2(1H)-one], the “Coupled exchange IC50 (5 min)” value is 4.65 | nda μM. `C=CC(=O)N1CCN(c2nc(=O)n(-c3ccccc3C(C)C)c3nc(C4=CCCCC4)c(Cl)cc23)[C@@H](C)C1` [Example 54-75, 6-chloro-7-(1-cyclohexen-1-yl)-4-((2S)-2-methyl-4-(2-propenoyl)-1-piperazinyl)-1-(2-(2-propanyl)phenyl)pyrido [2,3-d]pyrimidin-2(1H)-one]: the “Coupled exchange IC50 (5 min)” value is reported as 1.08 | nda μM. Same read-out and setting: the result for `C=CC(=O)N1CCN(c2nc(=O)n(-c3ccccc3C(C)C)c3nc(C4=CCCOC4)c(Cl)cc23)[C@@H](C)C1` [Example 54-76, 6-chloro-7-(5,6-dihydro-2H-pyran-3-yl)-4-((2S)-2-methyl-4-(2-propenoyl)-1-piperazinyl)-1-(2-(2-propanyl)phenyl)pyrido [2,3-d]pyrimidin-2(1H)-one] reads 5.48 | nda μM; that for `C=CC(=O)N1CCN(c2nc(=O)n(-c3ccccc3C(C)C)c3nc(-c4ncccc4F)c(Cl)cc23)[C@@H](C)C1` [Example 54-92, 6-chloro-7-(3-fluoro-2-pyridinyl)-4-((2S)-2-methyl-4-(2-propenoyl)-1-piperazinyl)-1-(2-(2-propanyl)phenyl)pyrido [2,3-d]pyrimidin-2(1H)-one], 1.27 | nda μM; that for `C=CC(=O)N1CCN(c2nc(=O)n(-c3ccccc3C(C)C)c3nc(-c4ncc(F)cc4F)c(Cl)cc23)[C@@H](C)C1` [Example 54-93, 6-chloro-7-(3,5-difluoro-2-pyridinyl)-4-((2S)-2-methyl-4-(2-propenoyl)-1-piperazinyl)-1-(2-(2-propanyl)phenyl)pyrido [2,3-d]pyrimidin-2(1H)-one], 1.43 | nda μM. On to `C=CC(=O)N1CCN(c2nc(=O)n(-c3ccccc3C(C)C)c3nc(-c4ncccc4Cl)c(Cl)cc23)[C@@H](C)C1` [Example 54-94, 6-chloro-7-(3-chloro-2-pyridinyl)-4-((2S)-2-methyl-4-(2-propenoyl)-1-piperazinyl)-1-(2-(2-propanyl)phenyl)pyrido [2,3-d]pyrimidin-2(1H)-one], for which the “Coupled exchange IC50 (5 min)” value is 1.19 | nda μM. For the molecule `C=CC(=O)N1CCN(c2nc(=O)n(-c3ccccc3C3(C)CC3)c3nc(Cl)c(Cl)cc23)[C@@H](C)C1` [Example 54-98], the “Coupled exchange IC50 (5 min)” value is on record as 5.45 | nda μM. Take `C=CC(=O)N1CCN(c2nc(=O)n(-c3ccccc3N3CCOCC3)c3nc(-c4c(O)cccc4F)c(Cl)cc23)[C@@H](C)C1` [Example 54-100, 6-chloro-7-(2-fluoro-6-hydroxyphenyl)-4-((2S)-2-methyl-4-(2-propenoyl)-1-piperazinyl)-1-(2-(4-morpholinyl)phenyl) pyrido[2,3-d] pyrimidin-2(1H)-one]: the “Coupled exchange IC50 (5 min)” value is 2.51 | nda μM.

`C=CC(=O)N1CCN(c2nc(=O)n(-c3c(CC)n[nH]c3CC)c3nc(-c4ccccc4F)c(Cl)cc23)[C@@H](C)C1` [Example 54-106]: the “Coupled exchange IC50 (5 min)” value was 0.51 | nda μM.

`C=CC(=O)N1CCN(c2nc(=O)n(-c3c[nH]cc3C(C)C)c3nc(-c4ccccc4F)c(Cl)cc23)[C@@H](C)C1` [Example 54-109, 6-chloro-7-(2-fluorophenyl)-4-((2S)-2-methyl-4-(2-propenoyl)-1-piperazinyl)-1-(4-(2-propanyl)-1H-pyrrol-3-yl)pyrido[2,3-d]pyrimidin-2(1H)-one]: the “Coupled exchange IC50 (5 min)” value is 0.355 | nda μM. On the same count and under the same terms, the result for `C=CC(=O)N1CCN(c2nc(=O)n(-c3c(C)ccnc3N(C)C)c3nc(-c4ccccc4F)c(Cl)cc23)[C@@H](C)C1` [Example 55-7] reads 0.806 | nda μM. In the case of `C=CC(=O)N1CCN(c2nc(=O)n(-c3nccc4c3CCCC4)c3nc(-c4c(O)cccc4F)c(Cl)cc23)[C@@H](C)C1` [Example 55-25, 6-chloro-7-(2-fluoro-6-hydroxyphenyl)-4-((2S)-2-methyl-4-(2-propenoyl)-1-piperazinyl)-1-(5,6,7,8-tetrahydro-1-isoquinolinyl)pyrido[2,3-d]pyrimidin-2(1H)-one], the “Coupled exchange IC50 (5 min)” value is given as 2.29 | nda μM.

For `C=CC(=O)N1CCN(c2nc(=O)n(-c3c(CC)cccc3CC)c3nc(-c4cccnc4)c(Cl)cc23)[C@@H](C)C1` [Example 55-28, 6-chloro-1-(2,6-diethylphenyl)-4-((2S)-2-methyl-4-(2-propenoyl)-1-piperazinyl)-7-(3-pyridinyl)pyrido[2,3-d]pyrimidin-2(1H)-one], the “Coupled exchange IC50 (5 min)” value is on record as 12.9 | nda μM. For `C=CC(=O)N1CCN(c2nc(=O)n(-c3c(CC)cccc3CC)c3nc(-c4cccnc4C)c(Cl)cc23)[C@@H](C)C1` [Example 55-29, 6-chloro-1-(2,6-diethylphenyl)-4-((2S)-2-methyl-4-(2-propenoyl)-1-piperazinyl)-7-(2-methyl-3-pyridinyl)pyrido[2,3-d]pyrimidin-2(1H)-one], the “Coupled exchange IC50 (5 min)” value is given as 7.19 | nda μM. Regarding `C=CC(=O)N1CCN(c2nc(=O)n(Cc3ccc(OC)cc3)c3nc(-c4c(O)cccc4F)c(Cl)cc23)[C@@H](C)C1` [Example 55-32, 6-chloro-7-(2-fluoro-6-hydroxyphenyl)-1-(4-methoxybenzyl)-4-((2S)-2-methyl-4-(2-propenoyl)-1-piperazinyl)pyrido[2,3-d]pyrimidin-2(1H)-one], the “Coupled exchange IC50 (5 min)” value was 3.07 | nda μM. Same read-out and setting: the result for `C=CC(=O)N1CCN(c2nc(=O)n(C)c3nc(-c4ccccc4F)c(Cl)cc23)[C@@H](C)C1` [Example 55-33, 6-chloro-7-(2-fluorophenyl)-1-methyl-4-((2S)-2-methyl-4-(2-propenoyl)-1-piperazinyl)pyrido[2,3-d]pyrimidin-2(1H)-one] reads 45.8 | nda μM; that for `C=CC(=O)N1CCN(c2nc(=O)n(C)c3nc(-c4c(O)cccc4F)c(Cl)cc23)[C@@H](C)C1` [Example 55-34, 6-chloro-7-(2-fluoro-6-hydroxyphenyl)-1-methyl-4-((2S)-2-methyl-4-(2-propenoyl)-1-piperazinyl)pyrido[2,3-d]pyrimidin-2(1H)-one], 20.8 | nda μM; that for `C=CC(=O)N1CCN(c2nc(=O)n(C)c3nc(-c4c(C)ccc5[nH]ncc45)c(Cl)cc23)[C@@H](C)C1` [Example 55-36, 6-chloro-1-methyl-7-(5-methyl-1H-indazol-4-yl)-4-((2S)-2-methyl-4-(2-propenoyl)-1-piperazinyl)pyrido[2,3-d]pyrimidin-2(1H)-one], 38.6 | nda μM.

The same experiment, now with this note: 2 h compound pre-incubation.
`C=CC(=O)N1CCN(c2nc(=O)n(-c3c(CC)cccc3CC)c3nc(Oc4cccc(F)c4)c(Cl)cc23)[C@@H](C)C1` [Example 54-64, 6-chloro-1-(2,6-diethylphenyl)-7-(3-fluorophenoxy)-4-((2S)-2-methyl-4-(2-propenoyl)-1-piperazinyl) pyrido[2,3-d]pyrimidin-2(1H)-one]: the “Coupled exchange IC50 (2 h)” value is listed as “nda | 7.97 μM”.
